In the NIST ThermoML archive (doi:10.1021/je060271a):

Settings: 283.15 K, Liquid, Vibrating tube method

CCCCCC(=O)OCC(COC(=O)CCCCC)(COC(=O)CCCCC)COC(=O)CCCCC [pentaerythritol tetrahexanoate]
Settings | mass density [kg/m3]
20425 kPa | 1015.6
20443 kPa | 1015.7
20458 kPa | 1015.7
20473 kPa | 1015.7
20491 kPa | 1015.7
20506 kPa | 1015.6
20522 kPa | 1015.6
20537 kPa | 1015.7
20555 kPa | 1015.7
20571 kPa | 1015.7
20586 kPa | 1015.8
20606 kPa | 1015.7
20621 kPa | 1015.7
20637 kPa | 1015.9
20652 kPa | 1015.7
20670 kPa | 1015.8
20686 kPa | 1015.8
20701 kPa | 1015.7
20719 kPa | 1015.8
20735 kPa | 1015.7
20750 kPa | 1015.8
20769 kPa | 1016
20785 kPa | 1015.8
20801 kPa | 1016
20817 kPa | 1015.9
20836 kPa | 1015.8
20851 kPa | 1015.8
20867 kPa | 1015.8
20886 kPa | 1015.9
20902 kPa | 1015.9
20918 kPa | 1015.9
20937 kPa | 1015.9
20953 kPa | 1015.9
20968 kPa | 1015.9
20988 kPa | 1015.9
21004 kPa | 1016
21021 kPa | 1016
21040 kPa | 1016
21057 kPa | 1016
21073 kPa | 1016
21092 kPa | 1016
21106 kPa | 1016
21122 kPa | 1016
21140 kPa | 1016.1
21155 kPa | 1016
21170 kPa | 1015.9
21185 kPa | 1016.1
21204 kPa | 1016.1
21219 kPa | 1016
21237 kPa | 1016
21252 kPa | 1016.1
21267 kPa | 1016.1
21282 kPa | 1016.1
21301 kPa | 1016.1
21316 kPa | 1016.1
21332 kPa | 1016.1
21350 kPa | 1016.1
21366 kPa | 1016.2
21384 kPa | 1016.2
21399 kPa | 1016.1
21415 kPa | 1016.1
21430 kPa | 1016.2
21449 kPa | 1016.3
21465 kPa | 1016.1
21480 kPa | 1016.2
21499 kPa | 1016.1
21514 kPa | 1016.3
21530 kPa | 1016.3
21546 kPa | 1016.3
21565 kPa | 1016.2
21581 kPa | 1016.1
21597 kPa | 1016.3
21616 kPa | 1016.3
21632 kPa | 1016.3
21648 kPa | 1016.3
21667 kPa | 1016.2
21684 kPa | 1016.3
21699 kPa | 1016.3
21715 kPa | 1016.3
21734 kPa | 1016.4
21766 kPa | 1016.3
21786 kPa | 1016.3
21802 kPa | 1016.5
21821 kPa | 1016.3
21837 kPa | 1016.4
21853 kPa | 1016.4
21870 kPa | 1016.3
21887 kPa | 1016.3
21904 kPa | 1016.4
21923 kPa | 1016.5
21940 kPa | 1016.5
21959 kPa | 1016.4
21976 kPa | 1016.5
21992 kPa | 1016.5
22008 kPa | 1016.5
22028 kPa | 1016.5
22044 kPa | 1016.5
22061 kPa | 1016.5
22081 kPa | 1016.5
22098 kPa | 1016.4
22117 kPa | 1016.6
22134 kPa | 1016.7
22150 kPa | 1016.5
22170 kPa | 1016.6
22187 kPa | 1016.6
22204 kPa | 1016.7
22224 kPa | 1016.5
22241 kPa | 1016.6
22261 kPa | 1016.5
22278 kPa | 1016.5
22295 kPa | 1016.5
22316 kPa | 1016.6
22333 kPa | 1016.6
22350 kPa | 1016.7
22367 kPa | 1016.7
22386 kPa | 1016.7
22402 kPa | 1016.7
22421 kPa | 1016.6
22436 kPa | 1016.7
22452 kPa | 1016.7
22468 kPa | 1016.6
22487 kPa | 1016.8
22503 kPa | 1016.7
22522 kPa | 1016.7
22538 kPa | 1016.8
22555 kPa | 1016.8
22574 kPa | 1016.7
22590 kPa | 1016.8
22607 kPa | 1016.7
22623 kPa | 1016.8
22643 kPa | 1016.7
22660 kPa | 1016.7
22676 kPa | 1016.8
22695 kPa | 1016.9
22710 kPa | 1016.9
22728 kPa | 1016.8
22744 kPa | 1016.8
22760 kPa | 1016.9
22779 kPa | 1016.9
22795 kPa | 1017
22810 kPa | 1016.8
22826 kPa | 1017
22845 kPa | 1017
22861 kPa | 1016.8
22880 kPa | 1017
22895 kPa | 1017
22911 kPa | 1016.9
22928 kPa | 1017
22946 kPa | 1017
22963 kPa | 1017
22982 kPa | 1016.9
22997 kPa | 1017.1
23012 kPa | 1016.9
23030 kPa | 1017.2
23045 kPa | 1016.9
23060 kPa | 1017
23075 kPa | 1017
23093 kPa | 1017
23108 kPa | 1017.1
23124 kPa | 1017.1
23142 kPa | 1017.1
23157 kPa | 1017
23175 kPa | 1017
23191 kPa | 1017.1
23206 kPa | 1017.1
23221 kPa | 1017.2
23240 kPa | 1017
23255 kPa | 1017.2
23274 kPa | 1017.3
23290 kPa | 1017.1
23305 kPa | 1017
23323 kPa | 1017.2
23339 kPa | 1017.2
23354 kPa | 1017.2
23370 kPa | 1017.3
23389 kPa | 1017
23405 kPa | 1017.1
23422 kPa | 1017.2
23437 kPa | 1017.2
23456 kPa | 1017.3
23472 kPa | 1017.2
23488 kPa | 1017.3
23507 kPa | 1017.3
23523 kPa | 1017.3
23539 kPa | 1017.3
23555 kPa | 1017.3
23574 kPa | 1017.4
23590 kPa | 1017.3
23607 kPa | 1017.3
23627 kPa | 1017.4
23640 kPa | 1017.5
23659 kPa | 1017.4
23675 kPa | 1017.3
23691 kPa | 1017.3
23711 kPa | 1017.4
23726 kPa | 1017.3
23746 kPa | 1017.4
23762 kPa | 1017.4
23778 kPa | 1017.3
23794 kPa | 1017.3
23813 kPa | 1017.5
23830 kPa | 1017.5
23849 kPa | 1017.4
23866 kPa | 1017.5
23883 kPa | 1017.5
23902 kPa | 1017.5
23919 kPa | 1017.4
23935 kPa | 1017.5
23951 kPa | 1017.5
23971 kPa | 1017.5
23988 kPa | 1017.5
24004 kPa | 1017.5
24024 kPa | 1017.5
24041 kPa | 1017.6
24061 kPa | 1017.6
24078 kPa | 1017.6
24095 kPa | 1017.6
24111 kPa | 1017.6
24131 kPa | 1017.6
24148 kPa | 1017.7
24185 kPa | 1017.6
24202 kPa | 1017.5
24222 kPa | 1017.8
24239 kPa | 1017.6
24272 kPa | 1017.8
24327 kPa | 1017.7
24364 kPa | 1017.7
24382 kPa | 1017.7
24399 kPa | 1017.7
24419 kPa | 1017.6
24436 kPa | 1017.7
24457 kPa | 1017.8
24474 kPa | 1017.8
24492 kPa | 1017.9
24509 kPa | 1017.7
24530 kPa | 1017.9
24548 kPa | 1017.9
24565 kPa | 1017.9
24586 kPa | 1017.7
24603 kPa | 1017.7
24620 kPa | 1017.8
24641 kPa | 1018
24659 kPa | 1017.8
24676 kPa | 1017.9
24697 kPa | 1017.9
24715 kPa | 1017.9
24733 kPa | 1017.8
24754 kPa | 1017.8
24772 kPa | 1018
24789 kPa | 1018
24810 kPa | 1017.9
24828 kPa | 1017.9
24846 kPa | 1017.9
24867 kPa | 1017.9
24884 kPa | 1018
24903 kPa | 1017.8
24924 kPa | 1018
24942 kPa | 1018
24960 kPa | 1018.1
24981 kPa | 1018
25000 kPa | 1018
25018 kPa | 1018
25037 kPa | 1018.1
25059 kPa | 1018.2
25077 kPa | 1018
25095 kPa | 1018.1
25117 kPa | 1018.2
25135 kPa | 1018.2
25154 kPa | 1018.1
25175 kPa | 1018.1
25194 kPa | 1018.1
25212 kPa | 1018.1
25234 kPa | 1018.2
25253 kPa | 1018.2
25272 kPa | 1018.1
25290 kPa | 1018.1
25309 kPa | 1018.2
25331 kPa | 1018.2
25350 kPa | 1018.2
25372 kPa | 1018.2
25391 kPa | 1018.3
25410 kPa | 1018.2
25428 kPa | 1018.2
25451 kPa | 1018.2
25470 kPa | 1018.3
25489 kPa | 1018.2
25511 kPa | 1018.1
25530 kPa | 1018.3
25553 kPa | 1018.2
25572 kPa | 1018.3
